Experimental data taken from patent US11000033B2, “Ketone or oxime compound, and herbicide” (NISSAN CHEMICAL CORPORATION, priority 2014, dated 2021).

How the values were obtained:
Format in all cases: in vivo
Galium spurium = experiment: Test Example 5: herbicidal effect by foliage application, plastic box (symbol Q); conditions: 320 g/ha, 3 weeks after application
Outline: (§1)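 Herbicide, formulated as an emulsion and diluted in water, is sprayed onto the aerial parts of 14-day seedlings. These were grown at 25° C. to 30° C. in sterilized diluvial soil; effects are graded after 3 weeks.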

beet = experiment: Test Example 4: effect on crop by soil treatment (symbol f); conditions: for f: beet, effect grade on crop: 320 g/ha
Outline: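 Crop seed is sown in spots together with several weed species in a box of sterilized diluvial soil. It is covered by about 1.5 cm of soil and kept in a greenhouse held between 25° C. and 30° C.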

wheat = experiment: Test Example 5: effect on crop by foliage application, plastic box (symbol e); conditions: 320 g/ha, 3 weeks after application
Outline: (§2)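 Foliage-application test plants come from spot sowing in sterilized diluvial soil under a soil layer of about 1.5 cm, grown at 25° C. to 30° C. in a greenhouse.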

Amaranthus retroflexus = experiment: Test Example 4: herbicidal effect by soil treatment (symbol N); conditions: for N: Amaranthus retroflexus, herbicidal effect grade: 320 g/ha
Outline: (§3)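 Seeds were sown in sterilized diluvial soil, covered with about 1.5 cm of soil, and the soil surface was sprayed with a water-diluted emulsion of the compound at a predetermined rate. Plants grew in a greenhouse at 25° C. to 30° C.; effects were scored visually 3 weeks after application.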

Lolium multiflorum Lam. = experiment: Test Example 4: herbicidal effect by soil treatment (symbol K); conditions: for K: Lolium multiflorum Lam., herbicidal effect grade: 320 g/ha
Outline: as §3

[1] = system: Echinochloa crus-galli var. crus-galli; experiment: Test Example 4: herbicidal effect by soil treatment (symbol H); conditions: for H: Echinochloa crus-galli var. crus-galli, herbicidal effect grade: 320 g/ha
Outline: as §3

Setaria viridis = experiment: Test Example 5: herbicidal effect by foliage application, plastic box (symbol G); conditions: 320 g/ha, 3 weeks after application
Outline: as §1

corn = experiment: Test Example 4: effect on crop by soil treatment (symbol c); conditions: for c: corn, effect grade on crop: 320 g/ha
Outline: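 Plants are raised in a greenhouse (25° C. to 30° C.) from spot-sown seed, which sits under about 1.5 cm of sterilized diluvial soil in a box shared with weed species.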

Veronica persica [2] = experiment: Test Example 4: herbicidal effect by soil treatment (symbol R); conditions: for R: Veronica persica, herbicidal effect grade: 320 g/ha
Outline: as §3

Veronica persica [3] = experiment: Test Example 5: herbicidal effect by foliage application, plastic box (symbol R); conditions: 320 g/ha, 3 weeks after application
Outline: as §1

soybean = experiment: Test Example 5: effect on crop by foliage application, plastic box (symbol d); conditions: 320 g/ha, 3 weeks after application
Outline: as §2

Leptochloa chinensis = experiment: Test Example 3: herbicidal effect by foliage application, Wagner pot (symbol D); conditions: application herbicide amount 320 g/ha
Outline: (§4)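 In a shallow-flooded alluvial soil system held at 25–30 °C, plants including rice grew for 14 days and were then sprayed over the foliage with emulsion diluted to a fixed herbicide amount. Visual rating followed at 3 weeks.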

Cyperus difformis = experiment: Test Example 3: herbicidal effect by foliage application, Wagner pot (symbol E); conditions: application herbicide amount 320 g/ha
Outline: as §4

Scirpus juncoides = experiment: Test Example 1: herbicidal activity, application before weed generation in submerged conditions (symbol B); conditions: application herbicide amount 320 g/ha
Outline: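 Application before weed emergence: an aqueous dilution of the emulsion formulation was poured onto the surface of 4 cm-deep floodwater on the day of sowing. Effect was judged after 3 weeks (greenhouse, 25–30 °C).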

transplanted rice plant = experiment: Test Example 1: effect on crop, application before weed generation in submerged conditions (symbol a); conditions: application herbicide amount 320 g/ha
Outline: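 Rice at 2.5 leaf stage transplanted into submerged soil (4 cm depth) sown with three weed species; herbicide applied before weed emergence.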

[4] = application herbicide amount 320 g/ha

CON=C(CC1CC1)CC1CC(O)=C(c2c(C)cc(C)cc2C)C1=O (stereo not drawn) [1-070]
Q: Galium spurium, herbicidal effect grade (Galium spurium): 2 (Herbicidal ratio of 20% or higher and lower than 40%)
f (beet) effect on crop grade (beet; [4]): 0 (Herbicidal ratio of 5% or lower (almost no effect))
e: wheat, effect on crop grade (wheat): 0 (Herbicidal ratio of 5% or lower (almost no effect))
N (Amaranthus retroflexus) herbicidal effect grade (Amaranthus retroflexus; [4]): 0 (Herbicidal ratio of 5% or lower (almost no effect))
K (Lolium multiflorum Lam.) herbicidal effect grade (Lolium multiflorum Lam.; [4]): 5 (Herbicidal ratio of 90% or more (almost completely withered))
H (Echinochloa crus-galli var. crus-galli) herbicidal effect grade [1, 4]: 4 (Herbicidal ratio of 70% or higher and lower than 90%)
G: Setaria viridis, herbicidal effect grade (Setaria viridis): 5 (Herbicidal ratio of 90% or more (almost completely withered))
c (corn) effect on crop grade (corn; [4]): 1 (Herbicidal ratio of 5% or higher and lower than 20%)
R (Veronica persica) herbicidal effect grade (Veronica persica [2]; [4]): 0 (Herbicidal ratio of 5% or lower (almost no effect))
R: Veronica persica, herbicidal effect grade (Veronica persica [3]): 2 (Herbicidal ratio of 20% or higher and lower than 40%)
d: soybean, effect on crop grade (soybean): 0 (Herbicidal ratio of 5% or lower (almost no effect))
herbicidal effect on D (Leptochloa chinensis), grade 0-5 (Leptochloa chinensis): 4 (Herbicidal ratio of 70% or higher and lower than 90%)
herbicidal effect on E, grade 0-5 (Cyperus difformis): 4 (Herbicidal ratio of 70% or higher and lower than 90%)
Herbicidal effect grade, B: Scirpus juncoides (Scirpus juncoides): 0 (Herbicidal ratio of 5% or lower (almost no effect))
Effect grade on crop, a: transplanted rice plant (transplanted rice plant): 4 (Herbicidal ratio of 70% or higher and lower than 90%)

C=CC(CC1CC(O)=C(c2c(C)cc(C)cc2C)C1=O)=NOC (stereo not drawn) [1-086]
Q: Galium spurium, herbicidal effect (criteria 0-5) (Galium spurium): 0 (Herbicidal ratio of 5% or lower (almost no effect))
f: beet, effect grade on crop (beet): 0 (Herbicidal ratio of 5% or lower (almost no effect))
e: wheat, effect on crop (criteria 0-5) (wheat): 0 (Herbicidal ratio of 5% or lower (almost no effect))
N: Amaranthus retroflexus, herbicidal effect grade (Amaranthus retroflexus): 0 (Herbicidal ratio of 5% or lower (almost no effect))
K: Lolium multiflorum Lam., herbicidal effect grade (Lolium multiflorum Lam.): 5 (Herbicidal ratio of 90% or more (almost completely withered))
H: Echinochloa crus-galli var. crus-galli, herbicidal effect grade [1]: 1 (Herbicidal ratio of 5% or higher and lower than 20%)
G: Setaria viridis, herbicidal effect (criteria 0-5) (Setaria viridis): 3 (Herbicidal ratio of 40% or higher and lower than 70%)
c: corn, effect grade on crop (corn): 1 (Herbicidal ratio of 5% or higher and lower than 20%)
R: Veronica persica, herbicidal effect grade (Veronica persica [2]): 0 (Herbicidal ratio of 5% or lower (almost no effect))
R: Veronica persica, herbicidal effect (criteria 0-5) (Veronica persica [3]): 2 (Herbicidal ratio of 20% or higher and lower than 40%)
d: soybean, effect on crop (criteria 0-5) (soybean): 0 (Herbicidal ratio of 5% or lower (almost no effect))
herbicidal effect on D (Leptochloa chinensis), grade 0-5 (Leptochloa chinensis): 4 (Herbicidal ratio of 70% or higher and lower than 90%)
herbicidal effect on E, grade 0-5 (Cyperus difformis): 4 (Herbicidal ratio of 70% or higher and lower than 90%)
Herbicidal effect grade, B: Scirpus juncoides (Scirpus juncoides): 0 (Herbicidal ratio of 5% or lower (almost no effect))
Effect grade on crop, a: transplanted rice plant (transplanted rice plant): 3 (Herbicidal ratio of 40% or higher and lower than 70%)

CON=C(C)CC1CC(OC(=O)COc2ccc3ccccc3c2)=C(c2c(C)cc(C)cc2C)C1=O (stereo not drawn) [1-083]
Q: Galium spurium, herbicidal effect (criteria 0-5) (Galium spurium): 0 (Herbicidal ratio of 5% or lower (almost no effect))
f: beet, effect grade on crop (beet): 0 (Herbicidal ratio of 5% or lower (almost no effect))
e: wheat, effect on crop (criteria 0-5) (wheat): 5 (Herbicidal ratio of 90% or more (almost completely withered))
N: Amaranthus retroflexus, herbicidal effect grade (Amaranthus retroflexus): 5 (Herbicidal ratio of 90% or more (almost completely withered))
K: Lolium multiflorum Lam., herbicidal effect grade (Lolium multiflorum Lam.): 5 (Herbicidal ratio of 90% or more (almost completely withered))
H: Echinochloa crus-galli var. crus-galli, herbicidal effect grade [1]: 5 (Herbicidal ratio of 90% or more (almost completely withered))
G: Setaria viridis, herbicidal effect (criteria 0-5) (Setaria viridis): 5 (Herbicidal ratio of 90% or more (almost completely withered))
c: corn, effect grade on crop (corn): 4 (Herbicidal ratio of 70% or higher and lower than 90%)
R: Veronica persica, herbicidal effect grade (Veronica persica [2]): 0 (Herbicidal ratio of 5% or lower (almost no effect))
R: Veronica persica, herbicidal effect (criteria 0-5) (Veronica persica [3]): 0 (Herbicidal ratio of 5% or lower (almost no effect))
d: soybean, effect on crop (criteria 0-5) (soybean): 4 (Herbicidal ratio of 70% or higher and lower than 90%)
herbicidal effect on D (Leptochloa chinensis), grade 0-5 (Leptochloa chinensis): 5 (Herbicidal ratio of 90% or more (almost completely withered))
herbicidal effect on E, grade 0-5 (Cyperus difformis): 5 (Herbicidal ratio of 90% or more (almost completely withered))
Herbicidal effect grade, B: Scirpus juncoides (Scirpus juncoides): 4 (Herbicidal ratio of 70% or higher and lower than 90%)
Effect grade on crop, a: transplanted rice plant (transplanted rice plant): 5 (Herbicidal ratio of 90% or more (almost completely withered))

COCC(=O)OC1=C(c2c(C)cc(C)cc2C)C(=O)C(CC(C)=NOC)C1 (stereo not drawn) [1-093]
Q: Galium spurium, herbicidal effect (criteria 0-5) (Galium spurium): 0 (Herbicidal ratio of 5% or lower (almost no effect))
f: beet, effect grade on crop (beet): 0 (Herbicidal ratio of 5% or lower (almost no effect))
e: wheat, effect on crop (criteria 0-5) (wheat): 5 (Herbicidal ratio of 90% or more (almost completely withered))
N: Amaranthus retroflexus, herbicidal effect grade (Amaranthus retroflexus): 3 (Herbicidal ratio of 40% or higher and lower than 70%)
K: Lolium multiflorum Lam., herbicidal effect grade (Lolium multiflorum Lam.): 5 (Herbicidal ratio of 90% or more (almost completely withered))
H: Echinochloa crus-galli var. crus-galli, herbicidal effect grade [1]: 5 (Herbicidal ratio of 90% or more (almost completely withered))
G: Setaria viridis, herbicidal effect (criteria 0-5) (Setaria viridis): 5 (Herbicidal ratio of 90% or more (almost completely withered))
c: corn, effect grade on crop (corn): 5 (Herbicidal ratio of 90% or more (almost completely withered))
R: Veronica persica, herbicidal effect grade (Veronica persica [2]): 0 (Herbicidal ratio of 5% or lower (almost no effect))
R: Veronica persica, herbicidal effect (criteria 0-5) (Veronica persica [3]): 3 (Herbicidal ratio of 40% or higher and lower than 70%)
d: soybean, effect on crop (criteria 0-5) (soybean): 3 (Herbicidal ratio of 40% or higher and lower than 70%)
herbicidal effect on D (Leptochloa chinensis), grade 0-5 (Leptochloa chinensis): 5 (Herbicidal ratio of 90% or more (almost completely withered))
herbicidal effect on E, grade 0-5 (Cyperus difformis): 5 (Herbicidal ratio of 90% or more (almost completely withered))
Herbicidal effect grade, B: Scirpus juncoides (Scirpus juncoides): 5 (Herbicidal ratio of 90% or more (almost completely withered))
Effect grade on crop, a: transplanted rice plant (transplanted rice plant): 5 (Herbicidal ratio of 90% or more (almost completely withered))

CON=C(CC1CC(O)=C(c2c(C)cc(C)cc2C)C1=O)C1CCCCC1 (stereo not drawn) [1-085]
Q: Galium spurium, herbicidal effect (criteria 0-5) (Galium spurium): 0 (Herbicidal ratio of 5% or lower (almost no effect))
f: beet, effect grade on crop (beet): 0 (Herbicidal ratio of 5% or lower (almost no effect))
e: wheat, effect on crop (criteria 0-5) (wheat): 3 (Herbicidal ratio of 40% or higher and lower than 70%)
N: Amaranthus retroflexus, herbicidal effect grade (Amaranthus retroflexus): 0 (Herbicidal ratio of 5% or lower (almost no effect))
K: Lolium multiflorum Lam., herbicidal effect grade (Lolium multiflorum Lam.): 3 (Herbicidal ratio of 40% or higher and lower than 70%)
H: Echinochloa crus-galli var. crus-galli, herbicidal effect grade [1]: 1 (Herbicidal ratio of 5% or higher and lower than 20%)
G: Setaria viridis, herbicidal effect (criteria 0-5) (Setaria viridis): 5 (Herbicidal ratio of 90% or more (almost completely withered))
c: corn, effect grade on crop (corn): 0 (Herbicidal ratio of 5% or lower (almost no effect))
R: Veronica persica, herbicidal effect grade (Veronica persica [2]): 0 (Herbicidal ratio of 5% or lower (almost no effect))
R: Veronica persica, herbicidal effect (criteria 0-5) (Veronica persica [3]): 0 (Herbicidal ratio of 5% or lower (almost no effect))
d: soybean, effect on crop (criteria 0-5) (soybean): 0 (Herbicidal ratio of 5% or lower (almost no effect))
herbicidal effect on D (Leptochloa chinensis), grade 0-5 (Leptochloa chinensis): 4 (Herbicidal ratio of 70% or higher and lower than 90%)
herbicidal effect on E, grade 0-5 (Cyperus difformis): 0 (Herbicidal ratio of 5% or lower (almost no effect))
Herbicidal effect grade, B: Scirpus juncoides (Scirpus juncoides): 0 (Herbicidal ratio of 5% or lower (almost no effect))
Effect grade on crop, a: transplanted rice plant (transplanted rice plant): 3 (Herbicidal ratio of 40% or higher and lower than 70%)
